# Reference: article PMC6615261, “Repurposing Azithromycin and Rifampicin Against Gram-Negative Pathogens by Combination With Peptidomimetics” (Frontiers in Cellular and Infection Microbiology, 2019)
# Where two headings read alike, the source gives them in different places.
# How the values were obtained:
# [1] = system: E. coli clinical isolates and reference strains; assay: MIC of fixed-ratio peptidomimetic 1-antibiotic combinations in clinical isolates and reference strains; assay type: cell-based, Escherichia coli; conditions: with rifampicin or azithromycin
# Excerpt: Bacterial strains used in this study comprise MDR clinical isolates of E. coli ST131 (Cerquetti et al., [2010]) and K. pneumoniae ST258 (Jana et al., [2017]), and American type culture collection (ATCC) strains: ATCC 25922 (E. coli), ATCC 13883 (K. pneumoniae), and ATCC 27853 (P. aeruginosa). Additional clinical isolates of E. coli, K. pneumoniae, and P. aeruginosa resistant to β-lactams (including carbapenems and cephalosporins) were provided by Laurent Poirel, Université de Fribourg, Switzerland. The following growth media was routinely used for bacterial culturing: Luria-Burtani (LB), cation-adjusted Mueller-Hinton agar (MHA) and broth (MHB II). All assays were performed in cation-adjusted MHA or MHB II. Antibiotics were purchased from Sigma-Aldrich and the peptidomimetic collection (Table S1) was curated and provided by Henrik Franzyk. […]
# Minimal inhibitory concentrations (MICs) of peptidomimetics, antibiotics and their combinations were determined by broth microdilution according to the Clinical Laboratory Standards Institute performance standards (Clinical and Laboratory Standards Institute, [2013]). […] Potentiation of additional antibiotics by peptidomimetics was determined by using commercial 96-well plates containing varied concentrations of standard antibiotics (COMPAN1F; Trek Diagnostic Systems Inc.). The peptidomimetics were added immediately prior to inoculation with pathogen, and then MICs were determined as above. The MICs of peptidomimetic/antibiotic combinations were determined according to the method above, and the concentration ratios were selected based upon checkerboard results with 2:1 and 1:4 ratio of peptidomimetic with rifampicin or azithromycin, respectively. Minimal bactericidal concentrations (MBCs) were determined by using growth-curve assay plates. […] Growth was recorded at 10 min intervals as optical density (OD) at 600 nm during 24 h. […]
# E. coli ST131 [2] = assay: MIC by broth microdilution; assay type: cell-based, Escherichia coli; conditions: peptidomimetic alone
# Summary of the method: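 MICs were determined by CLSI broth microdilution. Combinations used fixed peptidomimetic:antibiotic ratios of 2:1 with rifampicin and 1:4 with azithromycin, and potentiation of other antibiotics was tested on COMPAN1F panels. MBCs came from OD600 growth curves over 24 h at 37°C, followed by plating of wells without growth onto MHA.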
# E. coli ST131 [3] = system: E. coli ST131
# Summary of the method: (§1)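 Two-dimensional checkerboard broth microdilution in MHB II, with twofold dilutions of peptidomimetic and antibiotic on crossed axes and 18–20 h incubation per CLSI. FICI = MICA(A+B)/MICA(alone) + MICB(A+B)/MICB(alone); ≤0.5 is interpreted as synergy.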
# P. aeruginosa ATCC 27853 = system: P. aeruginosa ATCC 27853
# Summary of the method: as §1
# K. pneumoniae ST258 = system: K. pneumoniae ST258
# Summary of the method: as §1
# [4] = MIC of azithromycin combined with the labelled peptidomimetic
# [5] = MIC of rifampicin combined with the labelled peptidomimetic
smiles,measurement,setting,value
"NCCCC[C@H](NC(=O)CCN(Cc1ccccc1)C(=O)[C@H](CCCCN)NC(=O)CCN(Cc1ccccc1)C(=O)[C@H](CCCCN)NC(=O)CCN(Cc1ccccc1)C(=O)[C@H](CCCCN)NC(=O)CCN(Cc1ccccc1)C(=O)[C@H](CCCCN)NC(=O)CCN(Cc1ccccc1)C(=O)[C@H](CCCCN)NC(=O)CCN(Cc1ccccc1)C(=O)[C@H](CCCCN)NC(=O)CCN(Cc1ccccc1)C(=O)[C@@H](N)CCCCN)C(=O)N(CCC(N)=O)Cc1ccccc1 [Peptidomimetic 1, H-(Lys-βNPhe)8-NH2]","Peptidomimetic concentration in combination, most E. coli isolates",[1],0.5 to 1 µM
same,MIC E. coli ST131,E. coli ST131 [2],2 µM
same,Antibiotic MIC in combination (AZM),E. coli ST131 [3]; [4],1 µg/mL
same,Antibiotic MIC in combination (RIF),E. coli ST131 [3]; [5],0.06 µg/mL
same,Peptidomimetic MIC alone,E. coli ST131 [3]; checkerboard,2 µM
same,Peptidomimetic MIC in combination,E. coli ST131 [3]; combined with AZM,0.25 µM
same,Peptidomimetic MIC in combination,E. coli ST131 [3]; combined with RIF,0.5 µM
same,Antibiotic MIC in combination (RIF),"P. aeruginosa ATCC 27853; P. aeruginosa ATCC 27853, MIC of rifampicin combined with the labelled peptidomimetic",1 µg/mL
same,Peptidomimetic MIC alone,"P. aeruginosa ATCC 27853; P. aeruginosa ATCC 27853, checkerboard",1 µM
same,Peptidomimetic MIC in combination,"P. aeruginosa ATCC 27853; P. aeruginosa ATCC 27853, combined with AZM",0.25 µM
same,Peptidomimetic MIC in combination,"P. aeruginosa ATCC 27853; P. aeruginosa ATCC 27853, combined with RIF",0.25 µM
same,Reduction of the MIC of azithromycin,"P. aeruginosa ATCC 27853; P. aeruginosa, sub-MIC concentrations of peptidomimetic",32- to 512 fold
same,Antibiotic MIC in combination (AZM),K. pneumoniae ST258; [4],4 µg/mL
same,Antibiotic MIC in combination (RIF),K. pneumoniae ST258; [5],0.25 µg/mL
same,Peptidomimetic MIC alone,K. pneumoniae ST258; checkerboard,16 µM
same,Peptidomimetic MIC in combination,K. pneumoniae ST258; combined with AZM,0.5 µM
same,Peptidomimetic MIC in combination,K. pneumoniae ST258; combined with RIF,0.5 µM
